Columns and labels:
[1] = test system: human lung cancer strain NCI-H441; format: cell-based
In short: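 Readout: […] after the ATP-based reagent. Compound: serial dilutions in dimethyl sulfoxide.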

[2] = target: HRAS wild-type protein (Homo sapiens, UniProt P01112); experiment: Binding to HRAS by surface plasmon resonance (SPR), KD and KD ratio to KRAS; conditions: ratio of KD for HRAS wild-type protein to KD for KRAS
In short: (§1)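 GDP-bound biotin-Avi RAS captured at ~100–300 RU, 30°C, pH 7.4 HBS containing 10 µM GDP, 10 mM MgCl2, 1 mM DTT, 0.01% Tween 20 and 4% DMSO. KD by 1:1 fitting.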

[3] = target: GDP-bound NRAS wild-type protein (Homo sapiens, UniProt P01111); experiment: Binding to NRAS by surface plasmon resonance (SPR), KD and KD ratio to KRAS; conditions: ratio of KD for GDP-bound NRAS wild-type protein to KD for KRAS
In short: as §1

Sequence of GDP-bound NRAS wild-type protein (P01111 whole entry): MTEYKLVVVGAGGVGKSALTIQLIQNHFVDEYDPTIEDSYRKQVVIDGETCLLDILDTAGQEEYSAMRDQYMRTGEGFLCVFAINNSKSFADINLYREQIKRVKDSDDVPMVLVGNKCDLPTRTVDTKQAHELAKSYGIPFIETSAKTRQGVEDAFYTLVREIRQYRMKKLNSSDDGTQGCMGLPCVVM
Sequence of HRAS wild-type protein (P01112 whole entry): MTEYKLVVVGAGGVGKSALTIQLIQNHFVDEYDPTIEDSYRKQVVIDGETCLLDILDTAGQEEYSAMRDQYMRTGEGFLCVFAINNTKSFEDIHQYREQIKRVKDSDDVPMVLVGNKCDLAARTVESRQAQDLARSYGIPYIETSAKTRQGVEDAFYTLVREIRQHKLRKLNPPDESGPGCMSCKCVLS

SMILES	IC50 [1] [nM]	HRAS /KRAS [2]	NRAS /KRAS [3]
CC[C@H](C)[C@@H]1NC(=O)[C@H](CC(C)C)N(C)C(=O)C[C@@H](C(=O)N2CCOCC2)N(C)C(=O)[C@H](C2CCCC2)N(C)C(=O)C2(CCC2)NC(=O)[C@@H]2C[C@@H](C(F)(F)F)CN2C(=O)[C@H](CCc2cc(F)c(C(F)(F)F)c(F)c2)NC(=O)CN(C)C(=O)[C@H](Cc2ccc(C(F)(F)F)cc2)N2CCCC[C@@H](C2=O)N(C)C(=O)CN(C)C1=O [PP0809]	8.4	B (a compound having 3 or more and less than 10 is denoted as B)	B (a compound having 3 or more and less than 10 is denoted as B)
CC[C@H](C)[C@@H]1NC(=O)[C@H](CC(C)C)N(C)C(=O)C[C@@H](C(=O)N2CCOCC2)N(C)C(=O)[C@H](C2CCCC2)N(C)C(=O)C2(CCC2)NC(=O)[C@@H]2[C@H]3C[C@H]3CN2C(=O)[C@H](CCc2cc(F)c(C(F)(F)F)c(F)c2)NC(=O)CN(C)C(=O)[C@H](Cc2ccc(C(F)(F)F)cc2)N2CCCC[C@@H](C2=O)N(C)C(=O)CN(C)C1=O [PP0810]	12.8	B (a compound having 3 or more and less than 10 is denoted as B)	B (a compound having 3 or more and less than 10 is denoted as B)
CCO[C@@H]1C[C@H]2C(=O)NC3(CCC3)C(=O)N(C)[C@@H](C(CC)CC)C(=O)N(C)[C@H](C(=O)N3CCOCC3)CC(=O)N(C)[C@@H](CC(C)C)C(=O)N[C@@H]([C@@H](C)CC)C(=O)N(C)CC(=O)N(C)[C@H]3CCCCN(C3=O)[C@@H](Cc3ccc(C(F)(F)F)cc3)C(=O)N(C)CC(=O)N[C@@H](CCc3cc(F)c(C(F)(F)F)c(F)c3)C(=O)N2C1 [PP0811]	9.8	B (a compound having 3 or more and less than 10 is denoted as B)	B (a compound having 3 or more and less than 10 is denoted as B)
CCOC1CC2C(=O)NC3(CCC3)C(=O)N(C)C(C(C)CC)C(=O)N(C)[C@H](C(=O)N3CCOCC3)CC(=O)N(C)[C@@H](CC(C)C)C(=O)N[C@@H]([C@@H](C)CC)C(=O)N(C)CC(=O)N(C)[C@H]3CCCCN(C3=O)[C@@H](Cc3ccc(C(F)(F)F)cc3)C(=O)N(C)CC(=O)N[C@@H](CCc3cc(F)c(C(F)(F)F)c(F)c3)C(=O)N2C1 (stereo partly drawn) [PP0812]	17.9	B (a compound having 3 or more and less than 10 is denoted as B)	B (a compound having 3 or more and less than 10 is denoted as B)

Continued, in another order:

IC50 [1] [nM]	SMILES	HRAS /KRAS [2]	NRAS /KRAS [3]
90.3	CCO[C@@H]1C[C@H]2C(=O)NC3(CCC3)C(=O)N(C)[C@@H](CC(F)F)C(=O)N(C)[C@H](C(=O)N3CCOCC3)CC(=O)N(C)[C@@H](CC(C)C)C(=O)N[C@@H]([C@@H](C)CC)C(=O)N(C)CC(=O)N(C)[C@H]3CCCCN(C3=O)[C@@H](Cc3ccc(C(F)(F)F)cc3)C(=O)N(C)CC(=O)N[C@@H](CCc3cc(F)c(C(F)(F)F)c(F)c3)C(=O)N2C1 [PP0813]	B (a compound having 3 or more and less than 10 is denoted as B)	C (A compound having a KD ratio of 0.1 or more and less than 3 is denoted as C)
19.4	CCO[C@@H]1C[C@H]2C(=O)NC3(CCC3)C(=O)N(C)[C@@H](C(C)(C)C)C(=O)N(C)[C@H](C(=O)N3CCOCC3)CC(=O)N(C)[C@@H](CC(C)C)C(=O)N[C@@H]([C@@H](C)CC)C(=O)N(C)CC(=O)N(C)[C@H]3CCCCN(C3=O)[C@@H](Cc3ccc(C(F)(F)F)cc3)C(=O)N(C)CC(=O)N[C@@H](CCc3cc(F)c(C(F)(F)F)c(F)c3)C(=O)N2C1 [PP0814]	B (a compound having 3 or more and less than 10 is denoted as B)	B (a compound having 3 or more and less than 10 is denoted as B)
43.7	CC[C@H](C)[C@@H]1NC(=O)[C@H](CC(C)C)N(C)C(=O)C[C@@H](C(=O)N2CCOCC2)N(C)C(=O)[C@H](C2CCCC2)N(C)C(=O)C2(CCC2)NC(=O)[C@@H]2C[C@@H](C(F)(F)F)CN2C(=O)[C@H](CCc2cc(F)c(C(F)(F)F)c(F)c2)NC(=O)CN(C)C(=O)[C@H](Cc2ccc(C(F)(F)F)cc2)N2CCCCC[C@@H](C2=O)N(C)C(=O)CN(C)C1=O [PP0818]	B (a compound having 3 or more and less than 10 is denoted as B)	B (a compound having 3 or more and less than 10 is denoted as B)

Source: patent EP4603105A1, “PHARMACEUTICAL COMPOSITION CONTAINING CYCLIC COMPOUND HAVING SELECTIVE KRAS INHIBITORY EFFECT AGAINST HRAS AND NRAS” (CHUGAI SEIYAKU KABUSHIKI KAISHA, priority 2022, dated 2024)
